Test results reported in patent US20250206708A1, “AN OXAZIRIDINE PLATFORM FOR TARGETING FUNCTIONAL ALLOSTERIC METHIONINE SITES” (Novartis AG, priority 2022, published 2025).

Tests used:
CDK4 [1] = assay: Western blot of Rb phosphorylation (S780, S807/811) as cellular CDK4 activity; assay type: cell-based, human; details: serum-synchronized MCF-7 cells, dose of 500 μM
Method: Cells were synchronized to G1 via serum starvation. Cells were plated at 50% confluency and allowed to adhere overnight in serum-containing media. The next morning, the cells were gently washed twice with HBSS, and serum-free media was added. Cells were allowed to incubate an additional […], […]. Final cell confluency should remain below 75% for optimal results.
Cells were seeded in full media at 8 e5 cells/well in a 6-well plate. They were then serum-synchronized, as outlined in Example 15, and treated with compound as described previously. Cells were monitored by eye for cell death and harvested once high-dose cells were round but not detached. Cells were transferred to ice and washed twice gently with 1 mL ice-cold PBS. 10 mL of lysis buffer was prepared by dissolved a protease-inhibitor table (Pierce; cat no. A32953) and a phosphatase-inhibitor tablet (Roche; cat no. 4906845001) in 10 mL PBS (1% Triton X-100). Cells were scraped to harvest, transferred to 1.5 mL Eppendorf tubes, and incubated at 4° C. for 30 min on a rotator. Samples were spun at 5000×g for 10 min to clarify lysate. Supernatant was transferred to a new tube and protein concentration quantified via BCA assay (Pierce; cat no. 23225). Samples were normalized to the lowest concentration using chilled lysis buffer. […]

CDK4 [2] = molecular target: CDK4 (Homo sapiens, UniProt P11802); assay: Gel-based ABPP competition with Compound 303 probe on isolated CDK4; assay type: binding; details: Cy3 fluorescence readout
Method: Activity-based protein profiling (ABPP) was performed as follows. CDK4 was diluted in PBS to 50 nM, then 50 μL was added to each well of a 96-well PCR plate. Ligands were dissolved fresh in DMSO to 5 μM, and 1 μL was added so each well contained a unique ligand at the indicated concentration. Wells were mixed and allowed to incubate 1 h at 23° C. […] Excess oxaziridine was quenched with N-acetyl methionine via addition of 1 μL of 10 mM DMSO stock (200 μM final), wells mixed and allowed to incubate 1 h at 23° C. A stock was prepared 1:5 of 12.5 μM DBCO-Cy3 in DMSO: 1.2% SDS/PBS. To each well was added 6 μL of this stock, the wells mixed and allowed to incubate overnight protected from light at 23° C. […] Samples were loaded and separated on precast 4-20% TGX gels and scanned by ChemiDoc MP for measuring in-gel fluorescence. […]
The oxaziridine fragment library from Example 8 was screened for methionine-directed modifiers of CDK4 via a gel-based ABPP platform as described in Example 3, seen in FIG. 7B. […] DBCO-Cy3 was then introduced by strain-promoted click chemistry to provide a fluorescence readout. The samples were subsequently separated via SDS-PAGE and fluorescence signals were normalized via silver stain to triage any covalent ligands that induced general protein aggregation, which would generate a false positive Cy3 signal, as shown in FIG. 5B. […]

[3] = system: ribociclib-sensitive cell lines; assay: Cell viability screen across ribociclib-sensitive cell lines; assay type: cell-based; details: 500 μM compound
Method: All cells were maintained as a monolayer in exponential growth at 37° C. in a 5% CO2 atmosphere. MCF-7 and HepG2 were maintained in Dulbecco's Modified Eagle Medium (DMEM, Gibco) supplemented with 10% (v/v) fetal bovine serum (FBS, Seradigm). HT-29 and SW-48 were maintained in RPMI 1640 Medium (Gibco) supplemented with 10% FBS.
All cells dosed with oxaziridine were treated using a 2% DMSO/media solution. Oxaziridines were dissolved in DMSO and used the same day as treatment. Media was removed from cells and replaced with fresh media containing oxaziridine in DMSO for a final concentration of 2% DMSO. Control wells were treated with 2% DMSO/media. Cells were incubated at 37° C. in a 5% CO2 atmosphere.
Commercially available Cell Counting Kit-8 Assay (Dojindo) was used to investigate cell viability after treatment with oxaziridines. Cells were plated in 96-well plates (black/clear bottom; Thermo Fisher) and grown to 75% confluency. Media was removed and replaced with media containing 2% DMSO and indicated compound concentration. Cells were allowed to incubate 24 h. To assess viability, media was removed and replaced with 100 μL media containing 10% CCK-8 assay solution. Plates were incubated at 37° C. in a 5% CO2 atmosphere for 1-4 h until an orange color was visible. Viability was quantified via plate reader (monofilter) with absorption at 450 nm. […]

Sequence of CDK4 (Homo sapiens, UniProt P11802) (P11802 whole entry): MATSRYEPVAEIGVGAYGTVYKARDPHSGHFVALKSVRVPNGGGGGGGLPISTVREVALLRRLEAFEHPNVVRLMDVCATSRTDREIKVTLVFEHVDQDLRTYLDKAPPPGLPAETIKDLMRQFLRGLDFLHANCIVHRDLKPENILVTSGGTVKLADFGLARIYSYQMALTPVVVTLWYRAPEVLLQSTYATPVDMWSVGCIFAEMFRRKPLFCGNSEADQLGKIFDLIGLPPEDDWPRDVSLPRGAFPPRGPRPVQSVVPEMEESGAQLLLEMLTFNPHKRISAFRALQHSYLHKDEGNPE
Sequence of CDK4 (Homo sapiens, UniProt P11802) (P24385 whole entry partner): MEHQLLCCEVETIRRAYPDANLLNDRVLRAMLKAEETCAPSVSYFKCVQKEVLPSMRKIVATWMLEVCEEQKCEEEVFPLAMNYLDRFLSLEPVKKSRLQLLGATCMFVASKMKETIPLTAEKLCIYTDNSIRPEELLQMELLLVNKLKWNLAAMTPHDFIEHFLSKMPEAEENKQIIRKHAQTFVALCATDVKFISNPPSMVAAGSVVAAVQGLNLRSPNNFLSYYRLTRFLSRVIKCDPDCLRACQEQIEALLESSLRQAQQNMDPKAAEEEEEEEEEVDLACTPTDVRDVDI

O=C(N1CC2COCC2C1)N1OC1c1ccccc1 (stereo not drawn) [Compound 148]
signal from pRb antibodies (cellular CDK4 activity) (CDK4 [1]): marked decrease in signal | competition with Compound 303 probe for CDK4 binding (CDK4 [2]): competition with the Compound 303 probe for CDK4 binding in a dose-dependent manner | cell viability of ribociclib-sensitive cell lines [3]: decrease cell viability
